Assay results reported in PubChem BioAssay (NCI).
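96-well plates; 48 h exposure; 5 concentrations. Endpoints by linear interpolation between flanking doses. Not reached: highest tested concentration assigned. TGI: concentration producing complete growth inhibition.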

How the values were obtained:
Experiment in all cases: growth of human tumour cells (NCI), 48 h
RPMI-8226 leukemia = tested on: RPMI-8226 leukemia
SF-295 CNS = tested on: SF-295 CNS
SF-268 CNS = tested on: SF-268 CNS
HCC-2998 colon = tested on: HCC-2998 colon
NCI-H23 lung = tested on: NCI-H23 lung
RXF 393 renal = tested on: RXF 393 renal
EKVX NSCLC = tested on: EKVX NSCLC
ACHN renal = tested on: ACHN renal
A549 NSCLC = tested on: A549 NSCLC
HT29 colon = tested on: HT29 colon
KM12 colon = tested on: KM12 colon
HOP-62 NSCLC = tested on: HOP-62 NSCLC
OVCAR-3 ovarian = tested on: OVCAR-3 ovarian
HCT-15 colon = tested on: HCT-15 colon
DU-145 prostate = tested on: DU-145 prostate
A498 renal = tested on: A498 renal
HS 578T breast = tested on: HS 578T breast
PC-3 prostate = tested on: PC-3 prostate

CC(O)c1ccc[n+](Cc2ccccc2)c1 (stereo unspecified)
TGI (RPMI-8226 leukemia): > 400 µM
TGI (SF-295 CNS): > 400 µM
TGI (SF-268 CNS): > 400 µM
TGI (HCC-2998 colon): > 400 µM
TGI (NCI-H23 lung): > 400 µM
TGI (RXF 393 renal): > 400 µM
TGI (EKVX NSCLC): > 400 µM
TGI (ACHN renal): > 400 µM
TGI (A549 NSCLC): > 400 µM
TGI (HT29 colon): > 400 µM
TGI (KM12 colon): > 400 µM
TGI (HOP-62 NSCLC): > 400 µM
TGI (OVCAR-3 ovarian): > 400 µM
TGI (HCT-15 colon): > 400 µM

COc1cc(/C=C2\C(=O)N(c3ccccc3Cl)C(c3ccccc3)S2(=O)=O)cc(OC)c1OC (stereo unspecified)
TGI (RPMI-8226 leukemia): 42.9 µM
TGI (SF-295 CNS): > 100 µM
TGI (SF-268 CNS): > 100 µM
TGI (DU-145 prostate): > 100 µM
TGI (A498 renal): > 100 µM
TGI (HCC-2998 colon): > 100 µM
TGI (NCI-H23 lung): > 100 µM
TGI (RXF 393 renal): 76.7 µM
TGI (EKVX NSCLC): > 100 µM
TGI (ACHN renal): > 100 µM
TGI (A549 NSCLC): > 100 µM
TGI (HT29 colon): 52.2 µM
TGI (KM12 colon): 83.5 µM
TGI (HOP-62 NSCLC): > 100 µM
TGI (HS 578T breast): > 100 µM
TGI (OVCAR-3 ovarian): > 100 µM
TGI (HCT-15 colon): > 100 µM

S=C1CSc2c(ccc3ccccc23)N1
TGI (RPMI-8226 leukemia): > 100 µM
TGI (SF-295 CNS): > 100 µM
TGI (SF-268 CNS): > 100 µM
TGI (DU-145 prostate): > 100 µM
TGI (NCI-H23 lung): > 100 µM
TGI (RXF 393 renal): > 100 µM
TGI (EKVX NSCLC): > 100 µM
TGI (ACHN renal): > 100 µM
TGI (A549 NSCLC): > 100 µM
TGI (HT29 colon): > 100 µM
TGI (KM12 colon): > 100 µM
TGI (PC-3 prostate): > 100 µM
TGI (HOP-62 NSCLC): > 100 µM
TGI (HS 578T breast): > 100 µM
TGI (OVCAR-3 ovarian): > 100 µM
TGI (HCT-15 colon): > 100 µM

CSc1sc(=S)sc1C(=O)N(C)c1ccccc1
TGI (RPMI-8226 leukemia): > 100 µM
TGI (SF-295 CNS): > 100 µM
TGI (SF-268 CNS): > 100 µM
TGI (NCI-H23 lung): > 100 µM
TGI (RXF 393 renal): > 100 µM
TGI (EKVX NSCLC): > 100 µM
TGI (ACHN renal): > 100 µM
TGI (A549 NSCLC): > 100 µM
TGI (HT29 colon): > 100 µM
TGI (KM12 colon): > 100 µM
TGI (HOP-62 NSCLC): > 100 µM
TGI (OVCAR-3 ovarian): > 100 µM
TGI (HCT-15 colon): > 100 µM

Cc1ccc(/C=C2\CN(C)CC3C2=NN(c2ccccc2)C3c2ccc(C)cc2)cc1 (stereo unspecified)
TGI (SF-295 CNS): > 100 µM
TGI (SF-268 CNS): > 100 µM
TGI (DU-145 prostate): > 100 µM
TGI (A498 renal): > 100 µM
TGI (HCC-2998 colon): > 100 µM
TGI (NCI-H23 lung): > 100 µM
TGI (RXF 393 renal): > 100 µM
TGI (EKVX NSCLC): > 100 µM
TGI (ACHN renal): > 100 µM
TGI (A549 NSCLC): > 100 µM
TGI (HT29 colon): > 100 µM
TGI (KM12 colon): > 100 µM
TGI (PC-3 prostate): > 100 µM
TGI (HOP-62 NSCLC): > 100 µM
TGI (HS 578T breast): > 100 µM
TGI (OVCAR-3 ovarian): > 100 µM
TGI (HCT-15 colon): > 100 µM

COC(=O)NC12CC3CC(CC(F)(C3)C1)C2
TGI (RPMI-8226 leukemia): > 100 µM
TGI (A498 renal): > 100 µM
TGI (HCC-2998 colon): > 100 µM
TGI (NCI-H23 lung): > 100 µM
TGI (RXF 393 renal): > 100 µM
TGI (EKVX NSCLC): > 100 µM
TGI (ACHN renal): > 100 µM
TGI (A549 NSCLC): > 100 µM
TGI (HT29 colon): > 100 µM
TGI (KM12 colon): > 100 µM
TGI (HOP-62 NSCLC): > 100 µM
TGI (OVCAR-3 ovarian): > 100 µM

Cc1ccc(C2=C(C#N)C(=O)N3CCN=C3S2)cc1
TGI (SF-295 CNS): > 100 µM
TGI (DU-145 prostate): > 100 µM
TGI (HCC-2998 colon): > 100 µM
TGI (NCI-H23 lung): > 100 µM
TGI (RXF 393 renal): > 100 µM
TGI (EKVX NSCLC): > 100 µM
TGI (ACHN renal): > 100 µM
TGI (A549 NSCLC): > 100 µM
TGI (HT29 colon): > 100 µM
TGI (KM12 colon): > 100 µM
TGI (PC-3 prostate): > 100 µM
TGI (OVCAR-3 ovarian): > 100 µM
TGI (HCT-15 colon): > 100 µM

NC(CCC(=O)NC(CSC(=O)N(O)c1ccccc1)C(=O)NCC(=O)O)C(=O)O (stereo unspecified)
TGI (SF-295 CNS): > 1000 µM
TGI (SF-268 CNS): > 1000 µM
TGI (A498 renal): > 1000 µM
TGI (HCC-2998 colon): > 1000 µM
TGI (NCI-H23 lung): > 1000 µM
TGI (RXF 393 renal): > 1000 µM
TGI (EKVX NSCLC): > 1000 µM
TGI (ACHN renal): > 1000 µM
TGI (A549 NSCLC): > 1000 µM
TGI (HT29 colon): > 1000 µM
TGI (KM12 colon): > 1000 µM
TGI (HOP-62 NSCLC): > 1000 µM
TGI (OVCAR-3 ovarian): > 1000 µM
TGI (HCT-15 colon): > 1000 µM
